The values that follow come from ChEMBL document CHEMBL2202984, “16-morpholino quaternary ammonium steroidal derivatives as neuromuscular blocking agents: synthesis, biological evaluation and in silico probe of ligand-receptor interaction” (Eur J Med Chem, 2012).

Assay [1] can be described thus: (§1) Inhibition of nAChR-mediated twitch response in mouse hemidiaphragm.
Assay [2] is filed under the species Mus musculus. Put plainly: Inhibition of nAChR-mediated twitch response in mouse hemidiaphragm at IC90 in presence of neostigmine bromide.
For assay [3], the species on record is Mus musculus. The assay is described as §1.

Calls of active or inactive are those of the source. No cut-off for these calls is given here.

For `C[C@]12CC[C@H]([N+](C)(C)C)C[C@@H]1CC[C@@H]1[C@@H]2CC[C@]2(C)[C@@H](O)[C@@H]([N+]3(C)CCOCC3)C[C@@H]12`, inhibition in assay [1] was half-maximal at 21.4 µM (IC50).

As to `CC(=O)O[C@H]1[C@@H]([N+]2(C)CCOCC2)C[C@H]2[C@@H]3CC[C@H]4C[C@@H]([N+]5(C)CCCCC5)CC[C@]4(C)[C@H]3CC[C@@]21C`, in the assay listed under Mus musculus [2], the inhibition result was “inactive”. The same compound had a half-inhibitory concentration (IC50) in assay [1] of 3.49 µM. The compound further returned an IC90 in the assay filed under Mus musculus [3] of 5.46 µM.

Compound `C[C@]12CC[C@H](N3CC[N+](C)(C)CC3)C[C@@H]1CC[C@@H]1[C@@H]2CC[C@]2(C)[C@@H](O)[C@@H]([N+]3(C)CCOCC3)C[C@@H]12` displayed an IC50 in assay [1] of 24.5 µM.

`CC(=O)O[C@H]1[C@@H]([N+]2(C)CCOCC2)C[C@H]2[C@@H]3CC[C@H]4C[C@@H]([N+]5(C)CCOCC5)CC[C@]4(C)[C@H]3CC[C@@]21C`: the IC50 in assay [1] was found to be 33.9 µM. This compound also came in with an IC90 in the assay filed under Mus musculus [3] of 50.7 µM.

In assay [1], `C[C@]12CC[C@H]([N+](C)(C)c3ccccc3)C[C@@H]1CC[C@@H]1[C@@H]2CC[C@]2(C)[C@@H](O)[C@@H]([N+]3(C)CCOCC3)C[C@@H]12` returned an IC50 of 16.2 µM. This lies in the double-digit micromolar range.

In assay [1], `C[C@]12CC[C@H]([N+]3(C)CCOCC3)C[C@@H]1CC[C@@H]1[C@@H]2CC[C@]2(C)[C@@H](O)[C@@H]([N+]3(C)CCOCC3)C[C@@H]12` showed an IC50 of 38.9 µM.

`C=CC[N+]1([C@H]2C[C@H]3[C@@H]4CC[C@H]5C[C@H](O)[C@@H](N6CCOCC6)C[C@]5(C)[C@H]4CC[C@]3(C)[C@H]2OC(C)=O)CCCC1` [ROCURONIUM BROMIDE] registered a half-inhibitory concentration (IC50) in assay [1] of 2.5 µM. Also, the 90% effect concentration (IC90) in the assay listed under Mus musculus [3] came out at 3.53 µM.

`CC(=O)O[C@H]1[C@@H]([N+]2(C)CCOCC2)C[C@H]2[C@@H]3CC[C@H]4C[C@@H]([N+](C)(C)C)CC[C@]4(C)[C@H]3CC[C@@]21C` came in with a concentration for half-maximal inhibition (IC50) in assay [1] of 16.6 µM. This compound also registered an IC90 in the assay listed under Mus musculus [3] of 25 µM.

On to `CC(=O)O[C@H]1[C@@H]([N+]2(C)CCOCC2)C[C@H]2[C@@H]3CC[C@H]4C[C@@H]([N+](C)(C)Cc5ccccc5)CC[C@]4(C)[C@H]3CC[C@@]21C`, for which, in the assay filed under Mus musculus [2], the inhibition entry is “inactive”. The 50% inhibitory concentration (IC50) in assay [1] turned out to be 4.54 µM. The compound further yielded an IC90 in the assay listed under Mus musculus [3] of 6.38 µM.

In turn, `CC(=O)O[C@H]1[C@@H]([N+]2(C)CCOCC2)C[C@H]2[C@@H]3CC[C@H]4C[C@H](N5CC[N+](C)(C)CC5)CC[C@]4(C)[C@H]3CC[C@@]21C` gave an IC50 in assay [1] of 39.1 µM.

For `CC(=O)O[C@H]1CC[C@@]2(C)[C@@H](CC[C@@H]3[C@@H]2CC[C@@]2(C)[C@H]3C[C@H]([N+]3(C)CCOCC3)[C@@H]2OC(C)=O)C1`, the half-maximal inhibitory concentration (IC50) in assay [1] amounted to 19.8 µM. In the assay listed under Mus musculus [3], this compound returned an IC90 of 29.4 µM.

In assay [1], `C[C@]12CC[C@H]([N+]3(C)CCCC3)C[C@@H]1CC[C@@H]1[C@@H]2CC[C@]2(C)[C@@H](O)[C@@H]([N+]3(C)CCOCC3)C[C@@H]12` showed an IC50 of 27.6 µM. That is a double-digit micromolar value.

Take `CC(=O)O[C@H]1[C@@H]([N+]2(C)CCOCC2)C[C@H]2[C@@H]3CC[C@H]4C[C@H]([N+](C)(C)C)CC[C@]4(C)[C@H]3CC[C@@]21C`: the half-maximal inhibitory concentration (IC50) in assay [1] came to 17.4 µM.

In the case of `CC(=O)O[C@H]1[C@@H]([N+]2(C)CCOCC2)C[C@H]2[C@@H]3CC[C@H]4C[C@@H]([N+]5(C)CCCC5)CC[C@]4(C)[C@H]3CC[C@@]21C`, in assay [1], 10.7 µM corresponded to half-maximal inhibition (IC50). Further, in the assay listed under Mus musculus [3], the 90% effect level (IC90) was put at 15.7 µM.

Regarding `C[C@]12CC[C@H]([N+](C)(C)Cc3ccccc3)C[C@@H]1CC[C@@H]1[C@@H]2CC[C@]2(C)[C@@H](O)[C@@H]([N+]3(C)CCOCC3)C[C@@H]12`, half-maximal inhibition in assay [1] (IC50) was put at 18.5 µM.

In turn, `CC(=O)O[C@H]1[C@@H]([N+]2(C)CCOCC2)C[C@H]2[C@@H]3CC[C@H]4C[C@@H](N5CC[N+](C)(C)CC5)CC[C@]4(C)[C@H]3CC[C@@]21C` had an IC50 in assay [1] of 13.1 µM. Besides, the IC90 in the assay filed under Mus musculus [3] came to 18.6 µM.

For the compound `CC(=O)O[C@H]1[C@@H]([N+]2(C)CCOCC2)C[C@H]2[C@@H]3CC[C@H]4C[C@H]([N+]5(C)CCCC5)CC[C@]4(C)[C@H]3CC[C@@]21C`, in assay [1], 18.6 µM corresponded to half-maximal inhibition (IC50).

Regarding `CC(=O)O[C@H]1C[C@@H]2CC[C@@H]3[C@H](CC[C@@]4(C)[C@H]3C[C@H]([N+]3(C)CCCCC3)[C@@H]4OC(C)=O)[C@@]2(C)C[C@@H]1N1CCCCC1` [VECURONIUM BROMIDE], inhibition in assay [1] was half-maximal at 0.31 µM (IC50). Moreover, the IC90 in the assay listed under Mus musculus [3] is 0.44 µM.

In turn, `CC(=O)O[C@H]1[C@@H]([N+]2(C)CCOCC2)C[C@H]2[C@@H]3CC[C@H]4C[C@@H]([N+](C)(C)c5ccccc5)CC[C@]4(C)[C@H]3CC[C@@]21C` displayed a half-inhibitory concentration (IC50) in assay [1] of 12.7 µM. Besides, in the assay filed under Mus musculus [3], it took 18.2 µM to reach the 90% level (IC90).

The compound `C[C@]12CC[C@H]([N+]3(C)CCCCC3)C[C@@H]1CC[C@@H]1[C@@H]2CC[C@]2(C)[C@@H](O)[C@@H]([N+]3(C)CCOCC3)C[C@@H]12` showed a half-inhibitory concentration (IC50) in assay [1] of 13.6 µM.
